Test results from patent publication US12691124B2, “Methods of controlling and improving brain health” (ICAHN SCHOOL OF MEDICINE AT MOUNT SINAI, priority 2019, dated 2026).

Test system: primary cortical neurons
Experiment: Gene expression in primary cortical neurons
Type: cell-based, mouse
Excerpt: Primary Cortical Neuron Culture. Embryonic day 18 (E18) timed-pregnant female mice were anesthetized with CO2 and sacrificed by cervical dislocation. In a dissection hood, 24-26 embryos per experiment were collected through an incision of the mother's abdomen, taken out of the amniotic sacs and decapitated in ice cold Hank's Balanced Salt Solution (HBSS). Using fine scissors and forceps, brains were rapidly dissected and the cortex cleared from meninges and isolated under a dissection microscope. Cortices were collected in ice cold HBSS and kept on ice until all embryos had been dissected. In a tissue culture hood, HBSS was removed and the cortex tissue digested by 0.25% Trypsin-EDTA for 12 minutes at 37° C., followed by DNase1 treatment for 10 minutes at 37° C. The tissue was dissociated by serial trituration with a 25 ml serological pipette, followed by trituration with 10 ml and 5 ml serological pipettes. Cell suspension was washed once with DMEM medium, supplemented with 10% FBS and 1% penicillin/streptomycin and passed through a […] cell strainer before counted on a hemocytometer. Single cells were seeded on poly-D-lysine (0.1 mg ml-1) coated wells at a density of 1×10^6 cells per well on a 12-well plate. Cells were grown in Neurobasal medium, complemented with B27 supplement, N2 supplement, and 0.5 mM L-glutamine and maintained at 37° C. in 5% CO2 for 1 week. […] Cultures were washed with phosphate-buffered saline (PBS) on ice and processed for RNA isolation using TRIzol/Chloroform extraction.
RNA Isolation. For in vitro gene expression analysis, neuronal culture plates were washed once with PBS, and TRIzol was added directly to cultures to isolate RNA (n=3 per group). For in vivo gene expression analysis, mice were anesthetized with CO2 and decapitated. The striata from two control and acute or chronic I-BET treated mice were rapidly dissected on ice and frozen in liquid nitrogen. RNA extraction from frozen samples was performed using TRIzol/Chloroform according to manufacturer's instructions (Invitrogen Corporation, Carlsbad, CA). RNA was precipitated overnight at −80° C. in isopropanol with 0.15 M sodium acetate, washed twice with 70% ethanol, air-dried, and resuspended in RNase-free water. RNA samples were purified using Rneasy Micro columns (Qiagen) with on-column DNAse treatment as specified by manufacturer. […]
RNA Sequencing. […] Duplexed libraries were sequenced on HiSeq 2000, typically yielding on average 60 million, 100 bp long single-end reads per sample (Illumina). […] After filtering out adaptor and low quality reads, reads were mapped using TopHat (version 2.0.8) to the mm9 mouse genome. […] Differentially expressed autosomal genes between control and acute I-BET858 or chronic I-BET858 libraries were determined using a p-value <0.05 and fold change of >2. […]

Compound: CC(=O)N1c2ccc(-c3ccc(CN4CCCCC4)cc3)cc2[C@H](Nc2ccccc2)CC1C (stereo in doubt) [IBET858]
- cellular composition of the culture and cell identity gene expression (1 week IBET858): does not change
- autophagy, proteolysis and pro-survival genes (chronic BET inhibition): up-regulation
- metabolic genes (amino acid synthesis and import, glycolysis/TCA cycle, oxidative phosphorylation, fatty acid metabolism) (chronic BET inhibition, day 14): down-regulated
- genes decreased by rapamycin that were also decreased by IBET858 (one week treatment, 93/165): 56%
